Measured values published in patent publication US12012467B2, “Small molecule DCN1 inhibitors and therapeutic methods using the same” (THE REGENTS OF THE UNIVERSITY OF MICHIGAN, priority 2017, dated 2024).
Numbered stars: 1 amine (or outer) side, 2 acyl side, 3 side chain; on linkers, the order of the positions; unused ones are H or OH. Square brackets hold non-standard residues; d marks the D form. Peptide text beside a SMILES is read from it. * marks the point of attachment. Ala(6-iPr-benzothiazol-2-yl) = CC(C)c1ccc2nc(C[C@H](N)C(=O)O)sc2c1; 2Nal = N[C@@H](Cc1ccc2ccccc2c1)C(=O)O; Cha = N[C@@H](CC1CCCCC1)C(=O)O; Chg = N[C@H](C(=O)O)C1CCCCC1; NHPhenethyl = c1ccc(CCN*)cc1; CO = O=C([*:1])[*:2]; Propionyl = CCC(=O)*; Butyryl = CCCC(=O)*; NHPh = c1ccc(N*)cc1

The compounds below were run against DCN1 (Homo sapiens (Human), UniProt Q96GG9) (assay: Competitive FP binding assay). Conditions: bounds given in μM; read-out: Binding affinity to DCN1 (IC50).
Chain of DCN1 (Q96GG9 58-259): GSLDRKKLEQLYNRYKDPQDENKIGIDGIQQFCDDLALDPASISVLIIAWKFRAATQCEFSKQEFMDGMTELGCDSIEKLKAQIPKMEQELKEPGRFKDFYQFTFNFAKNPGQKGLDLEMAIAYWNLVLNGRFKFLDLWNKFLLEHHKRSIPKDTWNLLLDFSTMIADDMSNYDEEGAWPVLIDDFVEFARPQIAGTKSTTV
Procedure: Competitive FP Binding Assay
The Fluorescence Polarization (FP) competitive binding assays were performed to accurately determine the binding affinities of our DCN1 inhibitors. […] Serial dilutions of proteins were mixed with 46 to a final volume of 200 μl in the assay buffer (100 mM phosphate buffer, pH=6.5, with 0.02% Tween-20 and 2% DMSO). Final probe concentration was 5 nM for both assays. Plates were incubated at room temperature for 30 minutes with gentle shaking to assure equilibrium.
Pure proteins were derived from the same expression and purification protocols. Plasmids were transformed into Rosetta2 cells, the cells were grown in Terrific Broth at 37° C. to an O.D.600>1.0 and induced with 0.4 mM Isopropyl (3-D-1-thiogalactopyranoside overnight at 20° C. The pelleted cells were resuspended in lysis buffer containing 25 mM Tris-HCl, pH 7.5, 200 mM NaCl and protease inhibitors, sonicated and centrifuged at 34,000×g for 45 minutes to remove debris. Cleared lysate was incubated with Ni-NTA resin (Qiagen) prewashed with lysis buffer, for 1 hr at 4° C. The matrix was loaded into a column then washed with 25 mM Tris-HCl, pH 7.5, 200 mM NaCl and 10 mM imidazole. Protein was eluted with 25 mM Tris-HCl, pH 7.5, 200 mM NaCl and 300 mM imidazole, concentrated and applied to a Superdex 75 (GE Healthcare) column pre-equilibrated with 25 mM Tris pH 7.5, 200 mM NaCl and 1 mM DTT. For DCN2-5, the N-terminal His6 tag was removed prior to gel filtration. Tag removal was achieved through incubation with TEV protease during overnight dialysis against 25 mM Tris pH 7.5, 200 mM NaCl and 1 mM DTT and a second Ni-NTA column. DCN2-5 proteins were stored at −80° C. in 1 mg/mL fractions containing 5% glycerol. The uncleaved DCN1 protein was stored at −80° C. without glycerol.
Compound `CCC(=O)N[C@@H](Cc1nc2ccc(Cl)cc2s1)C(=O)N[C@H](CN)Cc1ccccc1` (stereo in doubt) [Example 87] has an IC50 greater than 10 µM. In the case of `CCC(=O)N[C@@H](Cc1ccc2ccccc2c1)C(=O)N[C@H](C(=O)N[C@@H](CCCCN)C(=O)NCCc1ccccc1)[C@@H](C)CC` [Example 11] (Propionyl-[2Nal]-Ile-Lys-NHPhenethyl), the IC50 is reported as greater than 10 µM. `CCC(=O)N[C@H](Cc1ccc2ccccc2c1)C(=O)N[C@H](C(=O)N[C@@H](CCCCN)C(=O)NC(c1ccccc1)c1ccccc1)C1CCCC1` [Example 145] gave an IC50 greater than 10 µM. In the case of `CCC(=O)N[C@@H](Cc1ccc2ccccc2c1)C(=O)N[C@H](C(=O)N[C@@H](CCCCN)C(=O)Nc1ccccc1)[C@@H](C)CC` [Example 9] (Propionyl-[2Nal]-Ile-Lys-NHPh), the IC50 is reported as greater than 10 µM. For `CCC(=O)N[C@@H](Cc1cccnc1)C(=O)N[C@H](C(=O)N[C@@H](CCCCN)C(=O)NC(c1ccccc1)c1ccccc1)[C@@H](C)CC` [Example 133], the IC50 was greater than 10 µM. In the case of `CCC(=O)N[C@@H](Cc1nc2ccc(C(C)C)cc2s1)C(=O)N[C@H](C(=O)NCCN1CCOCC1)C1CCNCC1` [Example 265], the IC50 is reported as greater than 10 µM. `CCC(=O)N[C@H](CN)Cc1nc2ccc(C(C)C)cc2s1` [Example 109] was tested, and the IC50 was greater than 10 µM. In the case of `CCC(=O)N[C@@H](Cc1ccc2ccccc2c1)C(=O)N[C@@H](CC(F)(F)F)C(=O)N[C@@H](CCCCN)C(=O)NC(c1ccccc1)c1ccccc1` [Example 23], the IC50 is reported as greater than 1 µM. `CC[C@H](C)[C@@H](CN)NC(=O)[C@@H](N)Cc1nc2ccc(C(C)C)cc2s1` [Example 49, (S)-2-amino-N-((2S,3S)-1-amino-3-methylpentan-2-yl)-3-(6-isopropylbenzo[d]thiazol-2-yl)propanamide] showed an IC50 greater than 10 µM. `CCC(=O)N[C@@H](Cc1nc2ccc(Cl)cc2s1)C(=O)N[C@@H](C[C@H]1CC[C@H](CNC(=O)COCCOCCOCCNC(=O)CCCC[C@@H]2SC[C@@H]3NC(=O)N[C@@H]32)CC1)C(=O)N[C@@H](CCCCN(C)C)C(=O)N[C@@H]1CCOc2ccccc21` [DI-427biotin (NC)] showed an IC50 greater than 10 µM. Work on `CC[C@H](C)[C@H](NC(=O)[C@@H](N)Cc1nc2ccc(C(C)C)cc2s1)C(=O)N[C@@H](CCCCN)C(=O)N[C@@H](CC(C)C)C(N)=O` [Example 272] (H-[Ala(6-iPr-benzothiazol-2-yl)]IKL-NH2) yielded an IC50 greater than 10 µM. `CN(C)CCCC[C@H](NC(=O)[C@@H](NC(=O)[C@@H](N)Cc1nc2ccc(Cl)cc2s1)C1CCCC1)C(=O)N[C@@H]1CCOc2ccccc21` [Example 205] gave an IC50 greater than 10 µM.

Same assay, conditions: read-out: Binding affinity to DCN1 (IC50 (nM))
Compound `CC[C@H](C)[C@H](NC(=O)[C@H](Cc1nc2ccc(C(C)C)cc2s1)NC(=O)NC)C(=O)N[C@@H](CCCCN)C(=O)N[C@@H](CC(C)C)C(N)=O` [Example 278] ({NHMe-CO}-[Ala(6-iPr-benzothiazol-2-yl)]IKL-NH2) has an IC50 of 0.0682 µM. Compound `CCC(=O)N[C@H](CNC(=O)C1(N)CCCC1)Cc1nc2ccc(C(C)C)cc2s1` [Example 114] has an IC50 of 1.55 µM. Work on `CCC(=O)N[C@H](CNC(=O)c1ccccc1)Cc1nc2ccc(Cl)cc2s1` [Example 252] yielded an IC50 of 1.83 µM. Compound `CCC(=O)N[C@@H](Cc1nc2ccc(Cl)cc2s1)C(=O)N[C@H](C(=O)N[C@@H](CC1CCN(C)CC1)C(=O)N[C@@H]1CCOc2ccccc21)C1CCOCC1` [Example 42] has an IC50 of 0.299 µM. In the case of `CCC(=O)N[C@@H](Cc1nc2cc(Cl)ccc2s1)C(=O)N[C@H](C(=O)N[C@@H](CCCCN)C(=O)NC(c1ccccc1)c1ccccc1)C1CCCC1` [Example 29], the IC50 is reported as 0.572 µM. `CCC(=O)N[C@@H](Cc1nc2ccc(C(C)C)cc2s1)C(=O)N[C@H](CNS(=O)(=O)C1CCNCC1)C1CCCCC1` [DI-777] gave an IC50 of 0.0553 µM. `CCC(=O)N[C@@H](Cc1nc2ccc(C(F)(F)F)cc2o1)C(=O)N[C@H](C(=O)N[C@@H](CCCCN)C(=O)N[C@@H]1CCOc2ccccc21)C1CCOCC1` [Example 197] showed an IC50 of 0.102 µM. Compound `CCC(=O)N[C@@H](Cc1ccc2ccccc2c1)C(=O)N[C@H](C(=O)N[C@@H](CCCCN)C(=O)N[C@@H]1CCOc2ccccc21)[C@@H](C)CC` [Example 17] has an IC50 of 0.651 µM. `CCC(=O)N[C@@H](Cc1nc2ccc(C)cc2s1)C(=O)N[C@H](C(=O)N[C@H](C(=O)N[C@@H]1CCOc2ccccc21)C1CCNCC1)C1CCOCC1` [Example 190] was tested, and the IC50 was 0.412 µM. With `CC[C@H](C)[C@@H](CN)NC(=O)[C@H](Cc1nc2ccc(C(C)C)cc2s1)NC(C)=O` [Example 46, (S)-2-acetamido-N-((2S,3S)-1-amino-3-methylpentan-2-yl)-3-(6-isopropylbenzo[d]thiazol-2-yl)propanamide] the IC50 was 0.281 ± 0.029 µM. With `CCC(=O)N[C@@H](Cc1nc2ccc(C(C)C)cc2s1)C(=O)N[C@H](CNC(=O)CCN1CCOCC1)Cc1ccccc1` [Example 93] the IC50 was 0.0899 µM. Work on `CCC(=O)N[C@@H](Cc1ccc2ccccc2c1)C(=O)N[C@H](C(=O)N[C@@H](CCCCN1CCOCC1)C(=O)NC(c1ccc(F)cc1)c1ccc(F)cc1)C1CCCC1` [Example 141] yielded an IC50 of 0.871 µM. In the case of `CCC(=O)N[C@@H](Cc1cn2cc(Cl)ccc2n1)C(=O)N[C@H](CN)Cc1ccccc1` [Example 108], the IC50 is reported as 4.17 µM. `CCC(=O)N[C@@H](Cc1nc2ccc(Cl)cc2s1)C(=O)N[C@@H](C[C@H]1CC[C@H](CN)CC1)C(=O)N[C@@H](CCCCN(C)C)C(=O)N[C@@H]1CCOc2ccccc21` [Example 45] showed an IC50 of 0.116 µM. `CCC(=O)N[C@@H](Cc1nc2ccc(CC)cc2s1)C(=O)N[C@H](CN)[C@@H](C)CC` [Example 215] was tested, and the IC50 was 0.23 µM. `CCC(=O)N[C@@H](Cc1nc2ccc(C)cc2s1)C(=O)N[C@H](C(=O)N[C@@H](CCCCN)C(=O)N[C@@H]1CCOc2ccccc21)C1CCOCC1` [Example 181] gave an IC50 of 0.176 µM. Work on `CC[C@H](C)[C@H](NC(=O)[C@H](Cc1nc2ccc(C(C)C)cc2s1)NC(C)=O)C(N)=O` [Example 7, (2S,3S)-2-((S)-2-acetamido-3-(6-isopropylbenzo[d]thiazol-2-yl)propanamido)-3-methylpentanamide] yielded an IC50 of 1.04 ± 0.128 µM. With `CCCC(=O)N[C@@H](Cc1nc2ccc(C(C)C)cc2s1)C(=O)N[C@H](C(=O)N[C@@H](CCCCN)C(=O)N[C@@H](CC(C)C)C(N)=O)[C@@H](C)CC` [Example 276] (Butyryl-[Ala(6-iPr-benzothiazol-2-yl)]IKL-NH2) the IC50 was 0.109 µM. `CCC(=O)N[C@@H](Cc1nc2ccc(C(C)C)cc2s1)C(=O)N[C@@H](CC1CCCCC1)C(=O)N[C@@H](CCCCN)C(=O)N[C@@H](CC(C)C)C(N)=O` [Example 289] (Propionyl-[Ala(6-iPr-benzothiazol-2-yl)][Cha]KL-NH2) was tested, and the IC50 was 0.138 µM. In the case of `CCC(=O)N[C@@H](Cc1nc2ccc(C(C)C)cc2s1)C(=O)N[C@H](CNC(=O)c1ncc[nH]1)C1CCCCC1` [Example 268], the IC50 is reported as 1.21 µM. For `CCC(=O)N[C@H](CNC(=O)CC1CCCC1)Cc1nc2ccc(Cl)cc2s1` [Example 255], the IC50 was 0.802 µM. Work on `CCC(=O)N[C@@H](Cc1nc2ccc(Cl)cc2s1)C(=O)N[C@H](C(=O)N[C@@H](CCCCN)C(=O)N[C@@H](c1ccccc1)c1cn(CCO)nn1)C1CCOCC1` [249 & 250] yielded an IC50 of 0.12 µM. `CCC(=O)N[C@@H](Cc1nc2ccc(Cl)cc2s1)C(=O)N[C@H](C(=O)N[C@@H](CCCCN(C)C)C(=O)N[C@@H]1CN(C)Cc2ccccc21)C1CCCC1` [Example 40] showed an IC50 of 0.163 µM. `CCC(=O)N[C@@H](Cc1nc2ccc(Cl)cc2s1)C(=O)N[C@H](C(=O)N[C@@H](CCCCN)C(=O)NCc1cccnc1)C1CCOCC1` [Example 242] was tested, and the IC50 was 1.2 µM. `CCC(=O)N[C@@H](Cc1nc2ccc(Cl)cc2s1)C(=O)N[C@H](CN)C1CCCC1` [Example 216] gave an IC50 of 0.559 µM. Compound `CCC(=O)N[C@@H](Cc1ccc2ccccc2c1)C(=O)N[C@H](C(=O)N[C@@H](CCCCNC1CCN(C)CC1)C(=O)NC(c1ccc(F)cc1)c1ccc(F)cc1)C1CCCC1` [Example 144] has an IC50 of 0.273 µM. Work on `CCC(=O)N[C@@H](Cc1nc2ccc(C)cc2s1)C(=O)N[C@H](C(=O)N[C@@H](CC1CCNCC1)C(=O)N[C@@H]1CCOc2ccccc21)C1CCOCC1` [Example 191] yielded an IC50 of 0.187 µM. `CCC(=O)N[C@@H](Cc1nc2ccc(CC)cc2s1)C(=O)N[C@H](C(=O)N[C@@H](CCCCN)C(=O)N[C@@H]1CNCc2ccccc21)C1CCCC1` [Example 177] was tested, and the IC50 was 0.079 µM. For `CCC(=O)N[C@@H](Cc1nc2ccc(C(C)C)cc2s1)C(=O)N[C@H](C(=O)N[C@@H](CCCCN)C(=O)N[C@@H](CC(C)C)C(N)=O)C1CCCCC1` [Example 286] (Propionyl-[Ala(6-iPr-benzothiazol-2-yl)][Chg]KL-NH2), the IC50 was 0.0583 µM. Compound `CCC(=O)N[C@@H](Cc1nc2ccc(C(C)C)cc2s1)C(=O)N[C@H](C(=O)N[C@@H](CCCCN)C(=O)N[C@@H]1CCOc2ccccc21)C1CCOCC1` [Example 206] has an IC50 of 0.0429 µM. Compound `CCC(=O)N[C@@H](Cc1nc2ccc(CC)cc2s1)C(=O)N[C@H](C(=O)N[C@@H](CC1CCN(C)CC1)C(=O)N[C@@H]1CCOc2ccccc21)C1CCOCC1` [Example 193] has an IC50 of 0.171 µM. `CCC(=O)N[C@@H](Cc1nc2ccc(Cl)cc2s1)C(=O)N[C@H](CN)[C@@H](C)CC` [Example 213] was tested, and the IC50 was 0.746 ± 0.072 µM. Compound `CCC(=O)N[C@@H](Cc1nc2ccc(C(C)C)cc2s1)C(=O)N[C@H](CNC(=O)C1CNC1)C1CCCCC1` [Example 68] has an IC50 of 0.0666 µM.
